Laboratory results taken from ChEMBL document CHEMBL1152033, “Spiro-piperidine non-peptide neurokinin-1 receptor antagonists” (Bioorg Med Chem Lett, 1995).

Molecular target: Substance-P receptor (Homo sapiens, UniProt P25103)
Experiment: Binding affinity measured by displacement of tritiated radiolabeled substance P from cloned human NK1 receptor expressed in CHO cell membranes

Substance-P receptor, sequence (P25103 whole entry): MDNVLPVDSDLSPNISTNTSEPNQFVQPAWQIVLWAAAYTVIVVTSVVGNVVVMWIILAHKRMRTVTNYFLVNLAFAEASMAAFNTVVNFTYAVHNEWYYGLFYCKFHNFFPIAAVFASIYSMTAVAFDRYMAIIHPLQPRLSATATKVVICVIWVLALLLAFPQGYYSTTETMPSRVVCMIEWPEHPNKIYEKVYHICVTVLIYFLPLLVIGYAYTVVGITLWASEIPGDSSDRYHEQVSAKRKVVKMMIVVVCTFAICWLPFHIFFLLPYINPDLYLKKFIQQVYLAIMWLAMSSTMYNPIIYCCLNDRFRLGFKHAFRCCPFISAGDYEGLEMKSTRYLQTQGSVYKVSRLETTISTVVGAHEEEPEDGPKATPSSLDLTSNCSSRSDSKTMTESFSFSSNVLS

Row | Ki [nM] | SMILES
1 | 39.8 | COc1ccccc1CN[C@H]1CCCN[C@]12CCc1ccccc12
2 | > 1000 | COc1ccccc1CN[C@H]1CCCN[C@@]12CCc1ccccc12
